Measurements published in PMC5666896, “Molecular Docking and Screening Studies of New Natural Sortase A Inhibitors” (International Journal of Molecular Sciences, 2017).
“Also recorded” adds a separate entry of the source. Where two headings read alike, the source gives them in different places.

Assays:
SrtA = target: T1, SrtA (Staphylococcus aureus, UniProt Q2FV99); test: Sortase A activity assay (FRET, SensoLyte 520 kit); assay type: biochemical, S. aureus; conditions: for SrtA inhibitory activity relative to myricetin (fold lower; myricetin IC50 fold lower than this compound): ratio of IC50 values to myricetin
T1 construct: purchased Anaspec, San Jose, CA, USA
Protocol: The inhibitory activity of all of the compounds was determined by quantifying the increase in fluorescence intensity upon a cleavage 5-FAM/QXL® FRET substrate using a SensoLyte® 520 Sortase A Activity Assay Kit (Anaspec, San Jose, CA, USA). According to kit protocol, reactions were performed in a 96-well plate, with each well containing 10 μL test compound solution, 40 μL enzyme solution, and 50 μL sortase substrate solution. All compounds were dissolved in dimethyl sulfoxide (DMSO) and diluted with sterilized distilled water. The final concentration of DMSO was 1%. Each compound diluted in buffer to the tested concentration and was checked for intrinsic fluorescence. According to the kit protocol, we used the enzyme without the test compound as a control, a 1% DMSO control, and a substrate control. We used the kit inhibitor, 4-hydroxymercuribenzoic acid (HMB), as the positive control. Reactions were carried out for 1 h at room temperature and analyzed fluorometrically (SpectraMAX Gemini XS, CA, USA) at Ex/Em = 490 nm/520 nm. All reported values are the means of triplicate assays.

Daphnia magna = test: in vivo; conditions: for Maximum lethality: after 48 h, tested 0.5 to 100 μM; for Highest lethality: after 48 h of exposure at 100 μM; for Toxicity on Daphnia magna (result in words): in vivo
Protocol: (§1) The Daphnia magna test was performed in 4 mL 12-tissue culture wells, using 10 daphnids/well, with each sample being tested in duplicate. […] All experiments were conducted in the dark, in a plant growth chamber (Sanyo MLR-351 H, San Diego, CA, USA) at 25 ± 1 °C [32, 33].
(§2) Statistical analysis of the inhibitory effect on SrtA and the Daphnia magna bioassay was performed using GraphPad Prism version 5.01 software (GraphPad Software, Inc., La Jolla, CA, USA). A student’s t-test (p < 0.05) was applied in order to analyze the results obtained from replicates. […] The inhibition (I %) and lethality percentage (L %) values were calculated and plotted against the logarithm of concentrations and the corresponding curves were calculated using the least squares fit method. […] Whenever the obtained results permitted, the upper and lower limits of the 95% confidence interval (95% CI) and the correlation coefficient (r^2) were calculated.

in vivo = conditions: in vivo
Protocol: as §1, §2

[1] = Solubility in water (observation during FRET testing)

T1 sequence (Q2FV99 whole entry): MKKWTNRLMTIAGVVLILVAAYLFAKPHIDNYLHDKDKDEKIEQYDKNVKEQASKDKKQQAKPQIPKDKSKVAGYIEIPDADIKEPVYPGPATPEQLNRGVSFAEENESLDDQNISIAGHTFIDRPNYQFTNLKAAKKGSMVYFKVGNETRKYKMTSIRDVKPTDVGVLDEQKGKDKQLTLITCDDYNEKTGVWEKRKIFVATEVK

C[C@@H]1CC[C@H]2[C@@H](C)C(=O)O[C@@H]3O[C@@]4(C)CC[C@@H]1[C@]32OO4 [Artemisinin, reference compound]
SrtA inhibition (result in words) (SrtA): statistically significant SrtA inhibition | inhibition at 50 µM (SrtA): 5.32%

O=c1ccc2cc(O)c(O)cc2o1 [Esculetin]
IC50 (SrtA): 36.2 µM | SrtA inhibition (result in words) (SrtA): statistically significant SrtA inhibition | inhibition at 250 µM (SrtA): 83.6% | SrtA inhibitory activity relative to myricetin (fold lower; myricetin IC50 fold lower than this compound) (SrtA): eight-fold | Maximum lethality (Daphnia magna): ≤ 30% | Highest lethality (Daphnia magna): ≤ 30%

O=C(/C=C/C=C/c1ccc2c(c1)OCO2)N1CCCCC1 [Piperine]
SrtA inhibition (result in words) (SrtA): statistically significant SrtA inhibition | inhibition at 10 µM (SrtA): 14.9% | LC50 at 24 h (in vivo): 145 µM | LC50 at 48 h (in vivo): 3.45 µM | Toxicity on Daphnia magna (result in words) (Daphnia magna): high level of toxicity | Solubility in water (result in words) [1]: low solubility in water; also recorded: low aqueous solubility

O=c1c(-c2ccc(O)cc2)coc2cc(O)cc(O)c12 [Genistein]
inhibition at 500 µM (SrtA): 9.63%

C[C@@H]1O[C@@H](OC[C@H]2O[C@@H](Oc3c(-c4ccc(O)c(O)c4)oc4cc(O)cc(O)c4c3=O)[C@H](O)[C@@H](O)[C@@H]2O)[C@H](O)[C@H](O)[C@H]1O [Rutin trihydrate]
SrtA inhibition (result in words) (SrtA): statistically significant SrtA inhibition | inhibition at 500 µM (SrtA): 28.7% | Maximum lethality (Daphnia magna): ≤ 30% | Highest lethality (Daphnia magna): ≤ 30%

O=c1cc(-c2ccccc2)oc2cc(O)cc(O)c12 [Chrysin]
SrtA inhibition (result in words) (SrtA): statistically significant SrtA inhibition | LC50 at 48 h (in vivo): 17.7 µM

O=C(O)c1cc[c]([Hg][OH])cc1 [HMB, 4-hydroxymercuribenzoic acid, reference compound]
Inhibition (%) (SrtA; 5 μM, after 1 h of incubation): 93.87% | IC50 (SrtA; after 1 h of incubation, read-out: IC50): 0.114 µM

O=c1c(O)c(-c2cc(O)c(O)c(O)c2)oc2cc(O)cc(O)c12 [Myricetin]
IC50 (SrtA): 4.63 µM | SrtA inhibition (result in words) (SrtA): statistically significant SrtA inhibition | inhibition at 100 µM (SrtA): 92% | Maximum lethality (Daphnia magna): ≤ 30% | Highest lethality (Daphnia magna): ≤ 30%

COc1cc([C@@H]2c3cc4c(cc3[C@H](O)[C@H]3COC(=O)[C@H]23)OCO4)cc(OC)c1OC [Podophyllotoxin]
SrtA inhibition (result in words) (SrtA): statistically significant SrtA inhibition | inhibition at 50 µM (SrtA): 26.4% | LC50 at 48 h (in vivo): 6.47 µM | Toxicity on Daphnia magna (result in words) (Daphnia magna): high level of toxicity | Solubility in water (result in words) [1]: low aqueous solubility

O=c1ccc2ccc(O)cc2o1 [Umbelliferone]
SrtA inhibition (result in words) (SrtA): statistically significant SrtA inhibition; also recorded: small inhibitory effect | inhibition at 250 µM (SrtA): 4.04% | LC50 at 48 h (in vivo): 105 µM

COc1cc(/C=C/C(=O)O)ccc1O [trans-ferulic acid, trans-Ferulic acid]
SrtA inhibition (result in words) (SrtA): inactive

C[C@@H]1O[C@@H](OC[C@H]2O[C@@H](Oc3c(-c4ccc(OCCO)c(OCCO)c4)oc4cc(OCCO)cc(O)c4c3=O)[C@H](O)[C@@H](O)[C@@H]2O)[C@H](O)[C@H](O)[C@H]1O [Troxerutin]
SrtA inhibition (result in words) (SrtA): statistically significant SrtA inhibition | inhibition at 500 µM (SrtA): 23.5% | Maximum lethality (Daphnia magna): ≤ 30% | Highest lethality (Daphnia magna): ≤ 30%

C[C@@H]1O[C@@H](O[C@H]2[C@H](Oc3cc(O)c4c(c3)O[C@H](c3ccc(O)cc3)CC4=O)O[C@H](CO)[C@@H](O)[C@@H]2O)[C@H](O)[C@H](O)[C@H]1O [naringin, Naringin]
SrtA inhibition (result in words) (SrtA): statistically significant SrtA inhibition | Maximum lethality (Daphnia magna): ≤ 30%

O=C(O)/C=C/c1ccc(O)c(O)c1 [caffeic acid, Caffeic acid]
SrtA inhibition (result in words) (SrtA): inactive

COc1cc2c(cc1OC)-c1cc3ccc(OC)c(OC)c3c[n+]1CC2 [Palmatine chloride]
IC50 (SrtA): 52.8 µM | SrtA inhibition (result in words) (SrtA): statistically significant SrtA inhibition | inhibition at 500 µM (SrtA): 85.3% | SrtA inhibitory activity relative to myricetin (fold lower; myricetin IC50 fold lower than this compound) (SrtA): eleven-fold | Maximum lethality (Daphnia magna): ≤ 30% | Highest lethality (Daphnia magna): ≤ 30%

O=C(O)[C@]1(O)C[C@@H](O)[C@@H](O)[C@H](O)C1 [Quinic acid]
SrtA inhibition (result in words) (SrtA): statistically significant SrtA inhibition | inhibition at 500 µM (SrtA): 19.6%

O=c1ccc2ccccc2o1 [coumarin, Coumarin]
SrtA inhibition (result in words) (SrtA): small inhibitory effect

O=c1ccc2cc(O[C@@H]3O[C@H](CO)[C@@H](O)[C@H](O)[C@H]3O)c(O)cc2o1 [Esculin, Esculin sesquihydrate]
SrtA inhibition (result in words) (SrtA): low SrtA inhibition
